Measured values as given in patent publication US20180037605A1, “SYNTHETIC PEPTIDES AND ENZYMATIC FORMATION OF INTRACELLULAR HYDROGELS” (BRANDEIS UNIVERSITY, priority 2015, published 2018).
In brackets after ≈: the same amount, converted by molar mass. Read-outs that look alike come from different tables or passages of the source.

Experiments:
esterase = experiment: Esterase-catalysed conversion of 1-t to 3 (analytical HPLC); assay type: biochemical, porcine
[1] = 1.0 wt %, pH 7.4
Method: Peptides 1-t/1 were dissolved into distilled water, and the pH of the solution was adjusted carefully by adding 1M NaOH, and this was monitored with pH paper. After the pH of the solution reached 7.4, extra distilled water was added to make the final concentration, followed by the addition of esterase to induce enzymatic gelation.
To elucidate the enzyme-catalyzed self-assembly to form supramolecular nanofibrils inside cells after cellular uptake illustrated in FIG. 2A, the enzymatic transformation of 1-t (or 1) to 3 and the subsequent self-assembly of 3 at the concentration of 1.0 wt % was first examined. To study the enzymatic hydrogelation process of 1-t, analytical HPLC was used to evaluate the rate of enzymatic transformation and transmission electron microscopy (TEM) to examine the self-assembly.

HeLa cells [2] = system: HeLa cells
Method: The HeLa cell line CCL-2™ was purchased from the American Type Culture Collection (ATCC, Manassas, Va., USA).
The following formula was used to calculate the intracellular concentration of the peptides.
Intracellular concentration=(c*300 uL)/(cell number*4*10^−9 cm^3)
where c=(fluorescence−15406.76945)/74174.36908. An average size for the common cells used in cell culture (HeLa) is 15-20 microns in diameter for a suspended cell (volume 4/3πr^3=4000 μm^3 or 4×10^−9 cm^3) (Moran et al., Cell 141:1262 (2010), which is hereby incorporated by reference in its entirety). Methanol was used to break the cell membrane and fully dissolve compounds 1-t, 2-t, and 3.
To quantify the intracellular concentration of the D-peptide derivatives, the procedure illustrated in FIG. 9A was used to determine the cellular uptake of 1-t, 1, and 2-t after treating HeLa cells with these molecules, respectively. […] The “uptake concentration (Cu)” of 1-t or 1 is the sum of 3 and 1-t (or 1) inside the cells.

HeLa cells [3] = settings: 200 μM, 24 hours
HeLa cells [4] = experiment: MTT cell viability, HeLa; assay type: cell-based; settings: third day (72 h)
Method: D-7 and D-10 (FIG. 12A), the enantiomers of L-7 and L-10, were prepared as described in Example 3. HeLa and SKOV3 cells were used in an MTT assay for assessing cytotoxicity of the peptides against these cancer cell lines.

A2780 cells = experiment: MTT cell viability, A2780; assay type: cell-based; settings: third day (72 h)
SKOV3 cells [5] = experiment: LC-MS of cell lysates and culture medium, SKOV3; assay type: cell-based
Method: After confirming that CES converts the precursor L-10 or D-10 into the hydrogelator L-12 or D-12, the stability of the precursors (L-10 or D-10) when incubated with the ovarian cancer cells was determined. After culturing the precursors with SKOV3 or A2780cis cells at 37° C. for 4 hours, the cell lysates and culture medium were collected for liquid chromatography-mass spectrometry (LC-MS) analysis and the intracellular concentrations of the precursors, the hydrogelators, and the relevant proteolyzed products were determined. After incubation with SKOV3 or A2780cis cells for 4 hours, more than 85% of the precursors (L-10 or D-10) turned into the corresponding hydrogelators (L-12 or D-12; see Table 1 below).

PC-12 cells [6] = experiment: MTT cell viability, PC-12 neuronal cells; assay type: cell-based, rat
Method: (§1) The cells were seeded in exponential growth phase in a 96 well plate at a concentration of 1×10^4 cell/well with 100 μL of culture medium. Cells were allowed to attach for 24 hours at 37° C., 5% CO2 and then the culture medium was removed with the help of vacuum pump. Culture medium containing the precursors in gradient concentrations was added to each well (0 μM as control). 10 μL of 5 mg/mL MTT ((3-(4,5-Dimethylthiazol-2-yl)-2,5-diphenyltetrazolium bromide) was added to each well after 24 hours, 48 hours, and 72 hours incubation. After 4 hours incubation of the plated cells in dark place, 100 μL 10% SDS with 0.01 M HCl was added to each well to dissolve the purple formazan and to stop the reduction reaction. 24 hours later, the absorbance of the solution at 595 nm was finally measured with a DTX 880 Multimode Detector.

HCC1937 cells = experiment: MTT cell viability, HCC1937; assay type: cell-based; settings: third day (72 h)
MCF-7 cells = experiment: MTT cell viability, MCF-7; assay type: cell-based; settings: third day (72 h)
Method: as §1

Saos-2 cells = experiment: MTT cell viability, Saos-2; assay type: cell-based; settings: third day (72 h)
Method: as §1

MES-SA cells = experiment: MTT cell viability, MES-SA; assay type: cell-based; settings: third day (72 h)
Method: as §1

MES-SA/D×5 cells = experiment: MTT cell viability, MES-SA/D×5; assay type: cell-based; settings: third day (72 h)
Method: as §1

A375 cells = experiment: MTT cell viability, A375; assay type: cell-based; settings: third day (72 h)
Method: as §1

HepG2 cells = experiment: MTT cell viability, HepG2; assay type: cell-based; settings: third day (72 h)
Method: as §1

U87MG cells = experiment: MTT cell viability, U87MG; assay type: cell-based
Method: as §1

T98G cells = experiment: MTT cell viability, T98G; assay type: cell-based
Method: as §1

[7] = system: co-cultured HS-5 and A2780cis cells; experiment: Cell viability of co-cultured HS-5 and A2780cis cells; assay type: cell-based; settings: L-10 73 μg/mL, third day
Method: 5×10^3 of SKOV3 cells (or A2780cis) and 5×10^3 HS-5 cells per well were seeded together and co-cultured in DMEM medium. Based on the results in FIG. 22, the concentrations of L-10 and D-10 at 73 and 37 μg/mL, respectively, were chosen. […] The inhibitory activities of L-10 and D-10 towards the co-culture agree well with their cytotoxicity against A2780cis, SKOV3, and H-5 cells. […] For example, on the first day, the cell viabilities of co-cultured HS-5 and SKOV3 cells and co-cultured HS-5 and A2780cis cells treated by D-10 (37 μg/mL) were 79% and 80%, respectively. While on the third day, the cell viabilities dropped to 44% and 57%, respectively. […] Contrary to the case of D-10, the efficacies of L-10 were almost the same between day two and day three (FIG. 25A), which agreed with the lower in vivo stability of L-10 than that of D-10.

SKOV3 cells [8] = system: SKOV3 cells
Method: SKOV3 cells were seeded in exponential growth phase in a 96 well plate at a concentration of 1×10^4 cell/well with 100 μL of McCoy's 5A medium modified supplemented with 10% fetal bovine serum (FBS), 100 U/mL penicillin and 100 μg/ml streptomycin. The cells were allowed to attach to the wells for 24 hours at 37° C., 5% CO2. The culture medium was removed and 100 μL culture medium containing compounds (immediately diluted from fresh prepared stock solution of 10 mM) at gradient concentrations (0 μM as the control) was placed into each well. McCoy's 5A medium modified was regarded as blank. After culturing at 37° C., 5% CO2 for 24 hours, 48 hours, and 72 hours, 10 μL of 5 mg/mL MTT (3-(4,5-Dimethylthiazol-2-yl)-2,5-diphenyltetrazolium bromide) was added to each well, and the plated cells were incubated in dark place for 4 hours. 100 μL 10% SDS with 0.01 M HCl was added to each well to stop the reduction reaction and to dissolve the purple formazan. After incubation of the cells at 37° C. for overnight, the OD at 595 nm of the solution was measured in a microplate reader.
as §1

HS-5 cells [9] = settings: 72 h
Method: as §1

in vitro = settings: human
Method: as §1

HS-5 cells [10] = experiment: MTT cell viability, HS-5 stromal cells
Method: as §1

[11] = Systemic toxicity after intravenous injection in mice; settings: 5 to 20 mg/kg, after 7 days
SKOV3 cells [12] = settings: read-out: IC50 of cisplatin; literature value (Oumzil et al.) used as comparison for SKOV3 inhibition; cited from earlier work
HS-5 cells [13] = settings: literature (Mendonca et al.); cited from earlier work
PC-12 cells [14] = settings: literature (Mendonca et al.); cited from earlier work
[15] = 200 μM in culture medium, 24 hours
[16] = SKOV3 cell lysates, 4 hours, 37° C., 20 μm D-10 or 50 μm L-10

With `O=C(CCC(=O)OCCNC(=O)[C@@H](Cc1ccccc1)NC(=O)[C@@H](Cc1ccccc1)NC(=O)CCNc1ccc([N+](=O)[O-])c2nonc12)NCCS(=O)(=O)O` [1-t] the “1-t converted to 3 (HPLC)” value (esterase; 1-t 100 μM, esterase 1 U/mL, 24 hours) was “more than 50%”, the metabolised at 24 h, 1 wt % (esterase; pig, esterase from porcine liver, pH 7.4, 1-t 1.0 wt %, esterase 1 U/ml, 24 hours, read-out: 1-t converted to 3 (HPLC)) was roughly 11% and the metabolised at 1 min, 1 wt % (esterase; pig, esterase from porcine liver, 1-t 1.0 wt %, pH 7.4, esterase 1 U/ml, 1 min, read-out: 1-t converted to 3 (analytical HPLC)) was 2.5%. For the same compound, the solubility [1] was “significantly enhanced the solubility”, the “enhancement of cellular uptake compared with incubation concentration” value (HeLa cells [2]; 50 μM, 24 hours) was “about 3 fold” and the “uptake concentration (Cu) / intracellular concentration” value (HeLa cells [2]; [15]) was 1.6 mM. The “intracellular concentration after washing five times with PBS buffer” value (HeLa cells [2]; 200 μM, 24 hour incubation) was 1.4 mM, the “uptake concentration relative to incubation (extracellular) concentration” value (HeLa cells [2]; 200 μM, 24 hours) was 8 fold and the Cu (HeLa cells [2]; 200 μM, 48 hours) was 2.4 mM. The “enhancement of cellular uptake compared with incubation concentration” value (HeLa cells [2]; 200 μM, 48 hours) was 12 fold, the “enhancement of cellular uptake compared with incubation concentration” value (HeLa cells [2]; 500 μM, 24 hours) was roughly 4.5 fold and the intracellular concentration (HeLa cells [2]; incubation medium 25 μM, 24 hours) was 28 µM.
In the case of `O=C(CCC(=O)NCCS(=O)(=O)O)NCCNC(=O)[C@@H](Cc1ccccc1)NC(=O)[C@@H](Cc1ccccc1)NC(=O)CCNc1ccc([N+](=O)[O-])c2nonc12` [2-t], the Cu (HeLa cells [2]; [15]) is reported as 0.8 mM, the “uptake concentration (Cu) / intracellular concentration” value (HeLa cells [2]; [15]) is reported as 0.8 mM and the “intracellular concentration after first wash” value (HeLa cells [2]; 200 μM, 24 hour incubation) is reported as 0.6 mM. For the same compound, the “intracellular concentration after washing five times with PBS buffer” value (HeLa cells [2]; 200 μM, 24 hour incubation) was 0.08 mM, the “decrease of intracellular concentration by each wash” value (HeLa cells [2]; 200 μM, 24 hour incubation, PBS wash) was “about 25%” and the “uptake concentration relative to incubation (extracellular) concentration” value (HeLa cells [2]; 200 μM, 24 hours) was 4 fold. For the same compound, the stability inside cells (HeLa cells [3]) was “remained intact inside cells”.
For `O=C(CCC(=O)OCCNC(=O)[C@H](Cc1ccccc1)NC(=O)[C@H](Cc1ccccc1)NC(=O)Cc1ccc2ccccc2c1)NCCS(=O)(=O)O` [L-10], the “IC50, HeLa” value (HeLa cells [4]) was 53 µg/mL (≈ 72.5 µM), the “IC50, A2780” value (A2780 cells) was 49 µg/mL (≈ 67 µM) and the “cumulative intracellular concentration of precursor and hydrogelator relative to incubation concentration” value (SKOV3 cells [5]; 4 hours incubation) was “about 10 fold”. For the same compound, the “Ratio of hydrogelator to precursor after 4 hours” value (SKOV3 cells [5]; SKOV3 cell lysates, 20 μm D-10 or 50 μm L-10) was 6.95, the “Hydrogelator (12) intracellular concentration” value (SKOV3 cells [5]; [16]) was 431 μm and the “Precursor (10) intracellular concentration” value (SKOV3 cells [5]; [16]) was 62 μm. For the same compound, the “inhibition of PC-12 cells” value (PC-12 cells [6]; 20 μM (D-10) and 50 μM (L-10)) was “hardly inhibited”, the “IC50, PC-12” value (PC-12 cells [6]; third day (72 h)) was “above 73 μg/mL” and the “IC50, HCC1937” value (HCC1937 cells) was 29 µg/mL (≈ 39.7 µM). The “IC50, MCF-7” value (MCF-7 cells) was 28 µg/mL (≈ 38.3 µM), the “IC50, Saos-2” value (Saos-2 cells) was 80 µg/mL (≈ 109 µM) and the “IC50, MES-SA” value (MES-SA cells) was 40 µg/mL (≈ 54.7 µM). For the same compound, the “IC50, MES-SA/D×5” value (MES-SA/D×5 cells) was 322 µg/mL (≈ 441 µM), the “IC50, A375” value (A375 cells) was 94 µg/mL (≈ 129 µM) and the “IC50, HepG2” value (HepG2 cells) was 97 µg/mL (≈ 133 µM). For the same compound, the “cell viability of U87MG” value (U87MG cells; 365 μg/mL of L-10) was “about 70%”, the “cytotoxicity toward U87MG” value (U87MG cells; at or below 146 μg/mL, 72 h) was “little cytotoxicity” and the “cell viability of T98G” value (T98G cells; 365 μg/mL of L-10) was roughly 60%. For the same compound, the “cytotoxicity toward T98G” value (T98G cells; at or below 146 μg/mL, 72 h) was “little cytotoxicity”, the “inhibition of co-cultured HS-5 and A2780cis cells” value [7] was “about 57%” and the “IC50, SKOV3” value (SKOV3 cells [8]; 72 h) was 46 µg/mL (≈ 62.9 µM). The “inhibition of SKOV3 cells by mixture with CP” value (SKOV3 cells [8]; 72 h, 37 μg/mL) was roughly 87%, the “IC50, A2780cis” value (A2780cis cells; third day (72 h)) was 39 µg/mL (≈ 53.4 µM) and the “IC50, HS-5” value (HS-5 cells [9]) was “above 73 μg/mL”. The viability at 3 day, 73 μg/mL (in vitro) was roughly 80%, the “inhibition of HS-5 cells” value (HS-5 cells [10]; 20 μM (D-10) and 50 μM (L-10)) was “hardly inhibited” and the “effect on weight and organ index of mice” value [11] was “hardly affected”.
With `N.N.[Cl][Pt][Cl]` [cisplatin, reference compound] the “inhibition of SKOV3 cells” value (SKOV3 cells [8]; 37 μg/mL, third day) was 90%, the “inhibition of SKOV3 cells” value (SKOV3 cells [8]; CP 6 μg/mL alone, 72 hours) was 48% and the “cell death of SKOV3 cells” value (SKOV3 cells [8]; CP 6 μg/mL alone, 72 hours (control compound experiment)) was “about 40%”. The “inhibition of A2780cis cells” value (A2780cis cells; 37 μg/mL, third day) was “about 98%”, the IC50 (SKOV3 cells [12]) was 35 µM and the “inhibition of HS-5 cells” value (HS-5 cells [13]) was “significantly inhibiting”. For the same compound, the “inhibition of PC-12 cells” value (PC-12 cells [14]) was “significantly inhibiting” and the “HS-5 cells killed / inhibited” value (HS-5 cells [10]; 37 μg/mL, third day) was roughly 100%.
For `O=C(O)CCC(=O)OCCNC(=O)[C@@H](Cc1ccccc1)NC(=O)[C@@H](Cc1ccccc1)NC(=O)CCNc1ccc([N+](=O)[O-])c2nonc12` [compound 1], the solubility [1] was “less soluble than 1-t” and the “uptake concentration (Cu) / intracellular concentration” value (HeLa cells [2]; [15]) was “hardly detected”.
